Here are results for four compounds from ChEMBL document CHEMBL4431337, “Synthesis and bioactivities of novel pyrazole oxime derivatives containing a 1,2,3-thiadiazole moiety” (Bioorg Med Chem Lett, 2016).

Broadly, the mortality is the percentage killed. The IC50 is the concentration at which inhibition is half-maximal.

SMILES strings stand for the structures.

The test system of experiment [1] is Tetranychus cinnabarinus. The experiment can be described thus: Acaricidal activity against Tetranychus cinnabarinus assessed as mortality at 50 ug/ml pre-incubated with mite-infested Sieva bean plants for 3 secs and measured 48 hrs post dose. In kind it is functional.
Experiment [2] concerns Tetranychus cinnabarinus. The experiment is described as follows: Acaricidal activity against Tetranychus cinnabarinus assessed as mortality at 200 ug/ml pre-incubated with mite-infested Sieva bean plants for 3 secs and measured 48 hrs post dose. In kind it is functional.
The subject of experiment [3] is Tetranychus cinnabarinus. The experiment can be described thus: Acaricidal activity against Tetranychus cinnabarinus assessed as mortality at 100 ug/ml pre-incubated with mite-infested Sieva bean plants for 3 secs and measured 48 hrs post dose. In kind it is functional.
A further experiment relates to SGC-7901. The experiment can be described thus: Cytotoxicity against human SGC7901 cells assessed as inhibition of cell growth after 48 hrs by MTT assay. The class given is functional, cell-based. Particulars: SGC-7901, 48 h. (In general: Formazan colour is commonly taken as a measure of viable cells.)
The subject of experiment [4] is Aphis craccivora. The experiment can be described thus: Insecticidal activity against Aphis craccivora assessed as mortality at 200 ug/ml pre-incubated with horsebean shoot with aphids for 2 secs and measured 48 hrs post dose by foliar application method. The class given is functional.
The test system of experiment [5] is Aphis craccivora. The experiment can be described thus: Insecticidal activity against Aphis craccivora assessed as mortality at 100 ug/ml pre-incubated with horsebean shoot with aphids for 2 secs and measured 48 hrs post dose by foliar application method. The class given is functional.
For experiment [6], the system named is Aphis craccivora. The experiment is described as follows: Insecticidal activity against Aphis craccivora assessed as mortality at 50 ug/ml pre-incubated with horsebean shoot with aphids for 2 secs and measured 48 hrs post dose by foliar application method. The class given is functional.
The test system of the next experiment is PANC-1. The experiment is described as follows: Cytotoxicity against human PANC1 cells assessed as inhibition of cell growth after 48 hrs by MTT assay. In kind it is functional, cell-based. The conditions noted are these: PANC-1, 48 h.
Experiment [7] relates to Plutella xylostella. The experiment is described as follows: Insecticidal activity against Plutella xylostella assessed as mortality at 200 ug/ml pre-incubated with cabbage leaves for 2 to 3 secs and measured 48 hrs post dose by leaf disc assay. The class given is functional. Particulars: foliar.
Another experiment deals with Huh-7. The experiment can be described thus: Cytotoxicity against human HuH7 cells assessed as inhibition of cell growth after 48 hrs by MTT assay. In kind it is functional, cell-based. The conditions noted are these: Huh-7, 48 h.
In the next experiment the test system is HCT-116. The experiment can be described thus: Cytotoxicity against human HCT116 cells assessed as inhibition of cell growth after 48 hrs by MTT assay. The class given is functional, cell-based. Particulars: HCT-116, 48 h.
The test system of experiment [8] is Plutella xylostella. The experiment is described as follows: Insecticidal activity against Plutella xylostella assessed as mortality at 100 ug/ml pre-incubated with cabbage leaves for 2 to 3 secs and measured 48 hrs post dose by leaf disc assay. In kind it is functional. Particulars: foliar.
In experiment [9] the test system is Plutella xylostella. The experiment can be described thus: Insecticidal activity against Plutella xylostella assessed as mortality at 50 ug/ml pre-incubated with cabbage leaves for 2 to 3 secs and measured 48 hrs post dose by leaf disc assay. In kind it is functional. Particulars: foliar.

For the compound `Cc1nn(C)c(Oc2ccccc2)c1/C=N/OCc1ccc(C(=O)OC(C)(C)C)cc1` [FENPYROXYMATE], the mortality at 50 µg/mL in the experiment on Tetranychus cinnabarinus [1] came out at 100%. In addition, the mortality at 200 µg/mL in the experiment with Tetranychus cinnabarinus [2] stood at 100%. Besides, in the experiment with Tetranychus cinnabarinus [3], the mortality at 100 µg/mL came to 100%.

With `Cc1nnsc1CO/N=C/c1c(C)nn(C)c1Oc1ccc(I)cc1`, the IC50 in the experiment with SGC-7901 is over 50 µM; in the experiment on PANC-1 it was over 50 µM; in the experiment on Huh-7 it was over 50 µM; in the experiment with HCT-116, 43.8 µM. Further, the values for the mortality at 200 µg/mL in the experiment with Aphis craccivora [4], with Plutella xylostella [7] and in the experiment on Tetranychus cinnabarinus [2] were 95%, 64% and 90%, respectively. The mortality at 100 µg/mL in the experiment with Aphis craccivora [5] came to 70%; in the experiment with Tetranychus cinnabarinus [3], 60%; with Plutella xylostella [8], 62%. Also, the mortality at 50 µg/mL worked out at 41% with Aphis craccivora [6], 0% in the experiment with Tetranychus cinnabarinus [1] and 60% with Plutella xylostella [9].

For the compound `Cc1nnsc1CO/N=C/c1c(C)nn(C)c1Oc1cccc(F)c1`, the IC50 in the experiment with SGC-7901, in the experiment with PANC-1, in the experiment with Huh-7 and in the experiment with HCT-116 was over 50 µM each time. Moreover, the mortality at 200 µg/mL in the experiment on Aphis craccivora [4] was 98%; with Plutella xylostella [7] it was 71%; in the experiment on Tetranychus cinnabarinus [2], 80%. Besides, the figures for the mortality at 100 µg/mL in the experiment on Aphis craccivora [5], in the experiment with Tetranychus cinnabarinus [3] and in the experiment with Plutella xylostella [8] were 80%, 50% and 0%, respectively. Further, the mortality at 50 µg/mL with Aphis craccivora [6] was 52%; with Tetranychus cinnabarinus [1], 0%.

As for `Cc1nnsc1CO/N=C/c1c(C)nn(C)c1Oc1ccc(Br)cc1`, the IC50 stood at 15.2 µM in the experiment with SGC-7901, 12.8 µM in the experiment on PANC-1, 11.8 µM with Huh-7 and 7.19 µM in the experiment on HCT-116. For the same compound, the figures for the mortality at 200 µg/mL in the experiment with Aphis craccivora [4], in the experiment on Plutella xylostella [7] and with Tetranychus cinnabarinus [2] were 20%, 100% and 0%, respectively. Also, in the experiment on Plutella xylostella [8], the mortality at 100 µg/mL is 80%. For the same compound, in the experiment on Plutella xylostella [9], the mortality at 50 µg/mL was 43%.
